The source of these data is patent US6951887B2 (The Research Foundation of State University of New York, priority 1998, dated 2005).

In one data set the test system is Hep G2. As to the kind of experiment: killing of cultured cells, Hep G2. Further details: key to cells killed by treatment: “+” indicates that the cells were killed by treatment; “−” indicates that they were not; “+/−” indicates a slow marginal response seen only in a few special cases with fibroblasts experimentally transformed by introduction of the ras oncogene. Format: cell-based. The settings on record: Hep G2; compound at two to fourfold above its threshold killing concentration. The source says: (§1) Table 1: Summarized are the responses of cells in culture to killing by example members of the family of blocked lipoate derivatives that are the object of this invention as well as one control compound (dihydroxyoctanoic acid). At right is indicated the specific cell line followed by the tissue of origin of the cell line. Across the top are listed the specific compounds tested. Each blocked lipoate derivative was used at two to fourfold above its threshold killing concentration. [These concentrations range form 0.15 mM (60 ug/ml or 60 mg/kg) to 2.5 mM (800 ug/ml or 800 mg/kg) (see EXAMPLE 11).] […] “+/−” indicates a slow marginal response seen only in a few special cases with fibroblasts experimentally transformed by introduction of the ras oncogene (EXAMPLE 10).
(§2) First, each cell type to be tested was plated at low densities in the wells of a standard 6×24 well tissue culture plate. (Multiple wells are seeded for each cell type.)
(§3) Second, the cells were allowed to grow to moderate densities. Transformed cells are in contact and non-transformed cells are contact-inhibited under these conditions.
(§4) Third, the lipoate derivatives to be tested were added to individual wells. In these experiments each compound was added at two to fourfold above the threshold killing concentration for cancer cells (EXAMPLE 11).
(§5) Fourth, cells were monitored over the next several days.

A further data set deals with LnCap (Prostate). The data set can be described thus: killing of cultured cells, LnCap. Format: cell-based. Further details: key: “+” indicates that the cells were killed by treatment; “−” indicates that they were not; “+/−” indicates a slow marginal response seen only in a few special cases with fibroblasts experimentally transformed by introduction of the ras oncogene. The settings on record: compound at two to fourfold above its threshold killing concentration.
Source text: as §1, §2, §3, §4, §5

A further data set deals with SW480 (Colon). The data set can be described thus: killing of cultured cells, SW480. The settings on record: compound at two to fourfold above its threshold killing concentration. The data set is classed as cell-based. Further details: key: “+” indicates that the cells were killed by treatment; “−” indicates that they were not; “+/−” indicates a slow marginal response seen only in a few special cases with fibroblasts experimentally transformed by introduction of the ras oncogene.
Source text: as §1, §2, §3, §4, §5

Another data set has as its system B16 (Skin). As to the kind of experiment: killing of cultured cells, B16. Format: cell-based. Further details: key: “+” indicates that the cells were killed by treatment; “−” indicates that they were not; “+/−” indicates a slow marginal response seen only in a few special cases with fibroblasts experimentally transformed by introduction of the ras oncogene. The settings on record: compound at two to fourfold above its threshold killing concentration.
Source text: as §1, §2, §3, §4, §5

For another data set, the system named is A549 (Lung). The data set can be described thus: killing of cultured cells, A549. The data set is classed as cell-based. Further details: key to cells killed by treatment: “+” indicates that the cells were killed by treatment; “−” indicates that they were not; “+/−” indicates a slow marginal response seen only in a few special cases with fibroblasts experimentally transformed by introduction of the ras oncogene. The settings on record: A549, Lung; compound at two to fourfold above its threshold killing concentration.
Source text: as §1, §2, §3, §4, §5

The test system of another data set is Saos 2 (Bone). As to the kind of experiment: killing of cultured cells, Saos 2. The data set is classed as cell-based. Further details: key: “+” indicates that the cells were killed by treatment; “−” indicates that they were not; “+/−” indicates a slow marginal response seen only in a few special cases with fibroblasts experimentally transformed by introduction of the ras oncogene. The settings on record: compound at two to fourfold above its threshold killing concentration.
Source text: as §1, §2, §3, §4, §5

The subject of a further data set is HeLa (Cervix). As to the kind of experiment: killing of cultured cells, HeLa. The data set is classed as cell-based. The settings on record: Cervix, compound at two to fourfold above its threshold killing concentration. Further details: key to cells killed by treatment: “+” indicates that the cells were killed by treatment; “−” indicates that they were not; “+/−” indicates a slow marginal response seen only in a few special cases with fibroblasts experimentally transformed by introduction of the ras oncogene.
Source text: as §1, §2, §3, §4, §5

Another data set has as its system RD (Embryo). As to the kind of experiment: killing of cultured cells, RD. Format: cell-based. Further details: key to cells killed by treatment: “+” indicates that the cells were killed by treatment; “−” indicates that they were not; “+/−” indicates a slow marginal response seen only in a few special cases with fibroblasts experimentally transformed by introduction of the ras oncogene. The settings on record: RD, Embryo; compound at two to fourfold above its threshold killing concentration.
Source text: as §1, §2, §3, §4, §5

The next data set relates to MCF 7 (Breast). As to the kind of experiment: killing of cultured cells, MCF 7. The settings on record: compound at two to fourfold above its threshold killing concentration. Further details: key: “+” indicates that the cells were killed by treatment; “−” indicates that they were not; “+/−” indicates a slow marginal response seen only in a few special cases with fibroblasts experimentally transformed by introduction of the ras oncogene. The data set is classed as cell-based.
Source text: as §1, §2, §3, §4, §5

For the next data set, the system named is HeLa cells. As to the kind of experiment: killing of HeLa cells with or without dichloroacetate (DCA). The settings on record: compound ca. twofold above threshold killing dose plus 5 mM DCA. Format: cell-based. The protocol: HeLa cells were plated at moderate densities and allowed to attach and grow for ca. 24 hours in a series of wells in a multi-well tissue culture plate. To individual wells of the first subset (control) were added bis-acetyl lipoate, mono-acetyl lipoate or bis-benzoyl lipoate—each at ca. twofold above the threshold killing dose (EXAMPLE 11). To an equivalent (experimental) subset of wells were added these same compounds at the same dose together with the simultaneous addition of DCA to 5 mM final concentration.

A further data set has as its system cancer cells in culture. As to the kind of experiment: threshold killing concentration and dose response in cultured cells. Format: cell-based. The settings on record: for threshold killing concentration: approximate center of a range extending two to threefold. The source says:
First, each compound killed cancer cells in culture at or above a relatively narrow, specific concentration range, but not below. The threshold concentrations given below represent the approximate center of this range which extended roughly two to threefold. […] Below these saturation ranges, sensitive cells survived and grew. They could be removed and replated to grow, apparently indefinitely, under these conditions. […] This was a highly unusual dose/response profile. The threshold killing concentrations (ranges) varied between individual compounds. Examples of these threshold killing concentrations were as follows: bis-benzoyl lipoate (EXAMPLE 3) 60 mg/liter (60 mg/kg), monoacetyl lipoate (EXAMPLE 4) 100 mg/liter (100 mg/kg); bis-acetyl lipoate (EXAMPLE 2) 600 mg/liter (600 mg/kg).
These changes were ultimately followed by cell death if treatment was continued. However, these morphological changes were reversed, and the cells recovered, if the lipoate derivative was removed during this initial exposure. As with the dose/response profile of the preceeding paragraph, this reversible induction of morphological change followed by commitment to cell death is highly idiosyncratic. The discovery that this behavior was shown by all tested members of the class of compounds that are the object of this invention was, again, very strong evidence that these compounds are, in fact, a functionally coherent class.

A further data set concerns B-16 melanoma. As to the kind of experiment: B-16 system, subcutaneous tumors. Format: in vivo, mouse. The settings on record: 100 mg/kg twice daily, started at tumors ca. 3-5 mm. The source says:
The B-16 melanoma strain was introduced either subcutaneously or intraperitoneally into individuals of the C57/BL syngeneic mouse strain (7). When left untreated such mice develop massive tumors in the immediate area of injection as well as secondary metastases throughout the animal—including in the liver and the lungs. These malignant growths result in the early death of the animals. Moreover, the resulting malignant growths are made up of darkly pigmented malignant melanocytes—making their assessment convenient and highly reliable. We will henceforth refer to this as the “B-16 system”.
Second, a group of animals were injected at a subcutaneous site with B-16 cells. […] As this time, one group oL animals (experimentals) began a twice-daily series of injections of the bis-acetyl lipoate derivative (100 mg/kg in 100 ul of isotonic saline) and a second set (controls) of corresponding injections of the saline solvent alone. [See EXAMPLES 2, 8 and 11 for the details of bis-acetyl lipoate derivative.]
Third, in several animals subcutaneous tumors were produced as in the preceding paragraph. After the tumors had grown to visible, palpable size, these animals received both a twice daily IP (systemic) dose of 50 mg/kg of bis-benzoyl lipoate as well as a twice daily direct injection a second dose of the same volume directly into the tumor mass.

In a further data set the test system is C57/BL mice. As to the kind of experiment: nonspecific toxicity by intraperitoneal injection. The settings on record: mouse, in vivo, ip. Here is the method: (§6) (All studies described in this section were carried out by intraperitoneal (IP) injection into C57/BL mice.)
Data set [1] is described as follows: nonspecific toxicity by intraperitoneal injection. The settings on record: C57/BL, mouse, in vivo, ip. Here is the method:
as §6

A further data set relates to NIH 3T3 ras transformed. As to the kind of experiment: killing of cultured cells, ras-transformed NIH 3T3 (T24). The data set is classed as cell-based. Further details: key to cells killed by treatment: “+” indicates that the cells were killed by treatment; “−” indicates that they were not; “+/−” indicates a slow marginal response seen only in a few special cases with fibroblasts experimentally transformed by introduction of the ras oncogene. The settings on record: NIH 3T3 ras transformed; compound at two to fourfold above its threshold killing concentration.
Source text: as §1, §2, §3, §4, §5
NIH-3T3 cells are relatively normal, noncancerous cells. However, if an activated allele of the ras oncogene is introduced into these cells they become highly malignant (cancerous) as assessed by several assays (REFERENCE).

SMILES strings stand for the structures.

With `NC(=O)CSCCC(CCCCC(=O)O)SCC(N)=O` (centres unmarked) [bis carbamoyl lipoate, 6,8-Biscarbamoylmethylmercaptooctanoic acid], in the data set with Hep G2, the “cells killed by treatment” value was “+”.
Turning to `CN1C(=O)CC(SCCC(CCCCC(=O)O)SC2CC(=O)N(C)C2=O)C1=O` (stereo not drawn) [bis methyl sucimimido lipoate, 6,8-Bis-[S-(N-methylsuccinimido)]mercaptooctanoic acid], the “cells killed by treatment” value in the data set with LnCap (Prostate), in the data set on SW480 (Colon), in the data set on Hep G2, with B16 (Skin), in the data set with A549 (Lung) and with Saos 2 (Bone) was “+” in each case. Also, the “cells killed by treatment” value in the data set on HeLa (Cervix), with RD (Embryo) and in the data set on MCF 7 (Breast) was “+” each time.
The term LD50 denotes the dose expected to kill half of the subjects tested. For the molecule `CC(=O)SCCC(CCCCC(=O)O)SC(C)=O` (centres unmarked) [bis-acetyl lipoate, 6,8-bisacetylmercaptooctanoic acid], the “cells killed by treatment” value with LnCap (Prostate), in the data set on SW480 (Colon), with Hep G2, in the data set with B16 (Skin), in the data set with A549 (Lung) and with Saos 2 (Bone) was “+” in each case. Moreover, the “cells killed by treatment” value in the data set on HeLa (Cervix) was “+”; in the data set with RD (Embryo), “+”; with NIH 3T3 ras transformed it was “+/−”; in the data set on MCF 7 (Breast), “+”. In the data set with HeLa cells, the “speed of cell killing with DCA relative to compound alone” value is given as “approximately twvice as rapidly”. The threshold killing concentration in the data set on cancer cells in culture came to 600 mg/L. Also, the “response of subcutaneous tumor” value with B-16 melanoma was “palpable softening and apparently partial liquification of the tumor mass followed by a stabilization or a reduction in size”. For the same molecule, the maximum well-tolerated dose entry in the data set with C57/BL mice is on record as “ca. 200 mg/kg”. In addition, the median lethal dose (LD50) in data set [1] was around 500 mg/kg.
As for `O=C([O-])CCCCC(O)CCO.[Na+]` (centres unmarked) [dihydroxy octanoic acid, Sodium 6,8-Dihydroxyoctanoate, reference compound], the “effect on cells in culture” value with cancer cells in culture (tested up to 5 mM (3200 ug/ml), cell lines of Table 1) is reported as “without detectable effect”.
Turning to `CC(=O)SCCC(S)CCCCC(=O)O` (centres unmarked) [monoacetyl lipoate, 8-acetylmercapto-6-mercaptooctanoic acid], the “cells killed by treatment” value in the data set on LnCap (Prostate), with SW480 (Colon), with Hep G2, with B16 (Skin), in the data set on A549 (Lung) and in the data set with Saos 2 (Bone) was “+” throughout. Also, the “cells killed by treatment” value with HeLa (Cervix), in the data set with RD (Embryo), with NIH 3T3 ras transformed and with MCF 7 (Breast) was “+” each time. Besides, the “speed of cell killing with DCA relative to compound alone” value with HeLa cells is on record as “approximately twvice as rapidly”. This molecule had a threshold killing concentration in the data set with cancer cells in culture of 100 mg/L.
